This is an account of results in paper PMC8413904 (Pharmacology Research & Perspectives, 2021).

The subject of assay [1] is cultured rat brain cortical neurons. The assay is described as follows: Dynamic calcium assay (Fluo‐8). The assay is classed as cell-based. Here is the method:
(§1) All animal experimental procedures and housing have been approved by the Institutional Animal Care and Use Committee (IACUC) protocol #18‐015 of Virginia Tech. Embryonic day 18 (E18) rat brain tissue samples were obtained from adult pregnant SD rats. Rat brain primary cortical, striatal, and cerebellar neurons were cultured on poly‐d‐lysine coated 96‐well plates for 14 days in vitro (DIV14) before using for the experiments. Primary rat neuron culture was performed as previously published.[44] Briefly, each well of a 96 well plate was loaded with 50 000 cells and grown in 200 µl neurobasal media supplemented with B27, glutamax, penicillin, streptomycin. One hundred microliters of media was replaced with fresh media once in 4 days. Eight to thirteen fetus were obtained from each pregnant rat. Brain tissue from these fetus were pooled to obtain the neurons. Cortical, striatal, and cerebellar neuron assays were carried out at different time points.
Dynamic calcium assay was carried out, using Fluo‐8 no‐wash kit (abcam, ab112129), as per the manufacturer's instructions with minor modifications to fit with experimental necessities. On DIV14, all 200 μl of media was removed and replaced it with 100 μl of HBSS and 100 μl of Fluo‐8 dye loading solution. The plates were incubated at 37°C for 30 min and at room temperature for 30 min. […] Costar 96‐well clear bottom black side plates were read from the bottom, nine times, with 60 s intervals between each read. Temperature was set at 37°C and reading speed was 100 ms.

In assay [2] the target is T1, GluN1/2A (UniProt P35439+Q12879). Details: method as in PMID 30553788. As to conditions: at −60 mV; read-out: Mg^2+ IC50; cited from earlier work.
T1 sequence (Q12879 23-1464, other chains not shown): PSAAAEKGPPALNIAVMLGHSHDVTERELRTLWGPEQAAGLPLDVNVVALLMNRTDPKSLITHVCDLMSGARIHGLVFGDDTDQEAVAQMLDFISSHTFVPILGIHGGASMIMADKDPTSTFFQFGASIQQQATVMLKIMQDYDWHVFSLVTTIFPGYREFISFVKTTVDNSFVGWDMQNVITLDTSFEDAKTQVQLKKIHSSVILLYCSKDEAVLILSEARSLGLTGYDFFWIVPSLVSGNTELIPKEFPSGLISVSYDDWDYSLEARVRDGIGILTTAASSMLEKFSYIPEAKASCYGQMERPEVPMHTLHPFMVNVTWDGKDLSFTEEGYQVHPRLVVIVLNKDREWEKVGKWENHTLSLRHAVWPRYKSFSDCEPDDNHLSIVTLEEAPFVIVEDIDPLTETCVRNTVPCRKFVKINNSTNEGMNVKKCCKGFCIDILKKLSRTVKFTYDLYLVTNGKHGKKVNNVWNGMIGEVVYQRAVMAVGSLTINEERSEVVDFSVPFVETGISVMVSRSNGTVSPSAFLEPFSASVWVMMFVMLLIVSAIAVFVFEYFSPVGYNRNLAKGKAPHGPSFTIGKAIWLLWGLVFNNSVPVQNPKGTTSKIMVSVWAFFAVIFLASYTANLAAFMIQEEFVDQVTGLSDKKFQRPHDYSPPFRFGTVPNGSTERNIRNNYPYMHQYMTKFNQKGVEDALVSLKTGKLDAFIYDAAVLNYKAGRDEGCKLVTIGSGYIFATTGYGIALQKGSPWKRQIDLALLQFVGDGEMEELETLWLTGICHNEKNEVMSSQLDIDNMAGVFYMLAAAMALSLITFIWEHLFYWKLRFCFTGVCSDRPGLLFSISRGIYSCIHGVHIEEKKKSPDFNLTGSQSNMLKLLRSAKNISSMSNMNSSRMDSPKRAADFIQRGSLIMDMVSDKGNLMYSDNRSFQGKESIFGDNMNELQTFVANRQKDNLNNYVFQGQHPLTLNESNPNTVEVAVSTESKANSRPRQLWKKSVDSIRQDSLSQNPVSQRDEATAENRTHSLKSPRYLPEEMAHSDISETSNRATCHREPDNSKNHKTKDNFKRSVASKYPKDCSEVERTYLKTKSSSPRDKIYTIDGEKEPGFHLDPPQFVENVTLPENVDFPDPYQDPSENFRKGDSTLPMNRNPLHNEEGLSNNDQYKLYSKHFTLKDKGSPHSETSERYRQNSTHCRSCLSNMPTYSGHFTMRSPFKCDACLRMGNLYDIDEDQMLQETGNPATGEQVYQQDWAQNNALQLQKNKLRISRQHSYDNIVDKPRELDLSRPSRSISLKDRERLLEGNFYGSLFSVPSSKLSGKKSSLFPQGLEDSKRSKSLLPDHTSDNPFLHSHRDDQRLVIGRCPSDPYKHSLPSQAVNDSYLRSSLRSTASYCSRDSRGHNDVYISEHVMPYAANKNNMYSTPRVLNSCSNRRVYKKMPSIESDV
Assay [3] concerns cultured rat brain striatal neurons. The assay is described as follows: Na^+ assay (CoroNa green‐AM). As to conditions: 300 µM NMDA alone. The class given is cell-based. Here is the method:
as §1
(§2) For Na^+ assay, DIV14 neurons were washed with HBSS and treated with freshly prepared CoroNa green‐AM dye (ThermoFisher, cat # C36676) and incubated for 45 min in 37°C. Plates were washed twice with HBSS before adding drug solutions dissolved in HBSS, and read at 492/516 nm (ex/em) using a plate reader. RFU values of background control and treatments were plotted to identify the effect of CNS4 on NMDA‐induced Na^+ flux in the neurons.

Assay [4] relates to cultured rat brain cerebellar neurons. The assay is described as follows: Na^+ assay (CoroNa green‐AM). As to conditions: 300 µM NMDA alone. The class given is cell-based. Here is the method:
as §1, §2

In assay [5] the test system is cultured rat brain striatal neurons. The assay is described as follows: Dynamic calcium assay (Fluo‐8). The assay is classed as cell-based. As to conditions: 300 µM NMDA alone. As for the experimental part:
as §1
(§3) Dynamic calcium assay was carried out, using Fluo‐8 no‐wash kit (abcam, ab112129), as per the manufacturer's instructions with minor modifications to fit with experimental necessities. On DIV14, all 200 μl of media was removed and replaced it with 100 μl of HBSS and 100 μl of Fluo‐8 dye loading solution. The plates were incubated at 37°C for 30 min and at room temperature for 30 min. A volume of 100 µL of test chemicals (3× of desired final concentration) was added to the plates immediately before running the calcium flux assay and read the fluorescence intensity at 490/525 nm (ex/em) using Synergy microplate reader, BioTek, VT. Costar 96‐well clear bottom black side plates were read from the bottom, nine times, with 60 s intervals between each read. Temperature was set at 37°C and reading speed was 100 ms.

For assay [6], the system named is cultured rat brain cerebellar neurons. As to the kind of experiment: Dynamic calcium assay (Fluo‐8). The class given is cell-based. The note with it: 300 µM NMDA alone. As for the experimental part: as §1, §3
The subject of assay [7] is cultured rat brain cortical neurons. The assay is described as follows: Na^+ assay (CoroNa green‐AM). The assay is classed as cell-based. As for the experimental part:
as §1
For Na^+ assay, DIV14 neurons were washed with HBSS and treated with freshly prepared CoroNa green‐AM dye (ThermoFisher, cat # C36676) and incubated for 45 min in 37°C. […] RFU values of background control and treatments were plotted to identify the effect of CNS4 on NMDA‐induced Na^+ flux in the neurons.

Assay [8] has as its target GluN1/2D (UniProt O15399+P35439). As to the kind of experiment: TEVC electrophysiology dose–response in xenopus oocytes. The assay is classed as cell-based. Details: host or cells: Xenopus oocytes (cRNA injection).
Source text: (§4) NMDAR constructs: cDNA encoding the NMDAR1a subunit (GluN1a) was obtained from Dr. Nakanishi. cDNA encoding the GluN2B (pci_sepGluN2B) was developed initially in the Malinow lab[36] and purchased from Addgene (cat# 23998). cDNA encoding the GluN2C and GluN2D were purchased from GenScript. Mutated GluN1, 2A and 2B cDNA constructs capable of assembling as GluN1/2A/2B triheteromeric (1/2AB) receptors[37] were obtained from Dr. Paoletti (Laboratoire de Neurobiologie, CNRS). […] Plasmids were linearized with NotI (GluN1a) or Avrll (GluN2B), or BstB1 (GluN2C and GluN2D) and transcribed in vitro with T7 (GluN1a, GluN1/2A, GluN2B, GluN2C, & GluN2D) RNA polymerase using the mMessage mMachine transcription kits (Invitrogen by Thermo Fisher Scientific).
(§5) Stage IV frog oocytes were obtained from Xenopus‐I. NMDAR subunit cRNAs were suspended in nuclease‐free sterile water. GluN1A, GluN2B, GluN2C, GluN2D, and GluN1/2A/2B cRNAs were mixed in a ratio of 1:1–3. 50 nl of the final cRNA mixture was microinjected (40–70 ng total) into the oocyte cytoplasm. Oocytes were incubated in ND‐96 solution at 18^◦C prior to electrophysiological recordings (1–3 days).
Electrophysiological responses were measured using a standard two‐microelectrode voltage‐clamp workstation [Warner Instruments (Hamden, Connecticut) model OC‐725C] designed to provide a fast clamp of large cells. The recording buffer contained 116 mM NaCl, 2 mM KCl, 0.3 mM BaCl2, and 5 mM HEPES, pH 7.4. Response magnitude was determined in xenopus oocytes expressing different NMDAR subunits (GluN1/2A, 1/2B, 1/2C, 1/2D, and 1/2A/2B) by the steady plateau response elicited by bath application of different agonist concentrations. […] Response amplitudes for functional NMDARs were generally between 0.1 and 2 μA. […] Dose–response relationships were fit to an appropriate curve‐fitting equation using GraphPad Prism‐7. Nonlinear regression was used to calculate EC50 and/or percentage maximal response. […] Statistical significance was determined at the overall alpha level .05, using appropriate statistical methods as described in each figure captions.
Assay [9] concerns the target T1, GluN1/2A. Described as above. The assay is classed as cell-based.
Source text: as §4, §5
Electrophysiological responses were measured using a standard two‐microelectrode voltage‐clamp workstation [Warner Instruments (Hamden, Connecticut) model OC‐725C] designed to provide a fast clamp of large cells. The recording buffer contained 116 mM NaCl, 2 mM KCl, 0.3 mM BaCl2, and 5 mM HEPES, pH 7.4. Response magnitude was determined in xenopus oocytes expressing different NMDAR subunits (GluN1/2A, 1/2B, 1/2C, 1/2D, and 1/2A/2B) by the steady plateau response elicited by bath application of different agonist concentrations. […] Response amplitudes for functional NMDARs were generally between 0.1 and 2 μA. […] Dose–response relationships were fit to an appropriate curve‐fitting equation using GraphPad Prism‐7. Nonlinear regression was used to calculate EC50 and/or percentage maximal response. Curve fittings were done using the following equations as performed in the previous studies[34], [39]: Y = 100/(1 + 10^(LogEC50‐X)) or Y = Bottom + (Top − Bottom)/(1+10^(LogEC50‐X)). Statistical significance was determined at the overall alpha level .05, using appropriate statistical methods as described in each figure captions.

Where two headings read alike, the source gives them in different places.

GluN1/2D, sequence (O15399 28-1336, other chains not shown): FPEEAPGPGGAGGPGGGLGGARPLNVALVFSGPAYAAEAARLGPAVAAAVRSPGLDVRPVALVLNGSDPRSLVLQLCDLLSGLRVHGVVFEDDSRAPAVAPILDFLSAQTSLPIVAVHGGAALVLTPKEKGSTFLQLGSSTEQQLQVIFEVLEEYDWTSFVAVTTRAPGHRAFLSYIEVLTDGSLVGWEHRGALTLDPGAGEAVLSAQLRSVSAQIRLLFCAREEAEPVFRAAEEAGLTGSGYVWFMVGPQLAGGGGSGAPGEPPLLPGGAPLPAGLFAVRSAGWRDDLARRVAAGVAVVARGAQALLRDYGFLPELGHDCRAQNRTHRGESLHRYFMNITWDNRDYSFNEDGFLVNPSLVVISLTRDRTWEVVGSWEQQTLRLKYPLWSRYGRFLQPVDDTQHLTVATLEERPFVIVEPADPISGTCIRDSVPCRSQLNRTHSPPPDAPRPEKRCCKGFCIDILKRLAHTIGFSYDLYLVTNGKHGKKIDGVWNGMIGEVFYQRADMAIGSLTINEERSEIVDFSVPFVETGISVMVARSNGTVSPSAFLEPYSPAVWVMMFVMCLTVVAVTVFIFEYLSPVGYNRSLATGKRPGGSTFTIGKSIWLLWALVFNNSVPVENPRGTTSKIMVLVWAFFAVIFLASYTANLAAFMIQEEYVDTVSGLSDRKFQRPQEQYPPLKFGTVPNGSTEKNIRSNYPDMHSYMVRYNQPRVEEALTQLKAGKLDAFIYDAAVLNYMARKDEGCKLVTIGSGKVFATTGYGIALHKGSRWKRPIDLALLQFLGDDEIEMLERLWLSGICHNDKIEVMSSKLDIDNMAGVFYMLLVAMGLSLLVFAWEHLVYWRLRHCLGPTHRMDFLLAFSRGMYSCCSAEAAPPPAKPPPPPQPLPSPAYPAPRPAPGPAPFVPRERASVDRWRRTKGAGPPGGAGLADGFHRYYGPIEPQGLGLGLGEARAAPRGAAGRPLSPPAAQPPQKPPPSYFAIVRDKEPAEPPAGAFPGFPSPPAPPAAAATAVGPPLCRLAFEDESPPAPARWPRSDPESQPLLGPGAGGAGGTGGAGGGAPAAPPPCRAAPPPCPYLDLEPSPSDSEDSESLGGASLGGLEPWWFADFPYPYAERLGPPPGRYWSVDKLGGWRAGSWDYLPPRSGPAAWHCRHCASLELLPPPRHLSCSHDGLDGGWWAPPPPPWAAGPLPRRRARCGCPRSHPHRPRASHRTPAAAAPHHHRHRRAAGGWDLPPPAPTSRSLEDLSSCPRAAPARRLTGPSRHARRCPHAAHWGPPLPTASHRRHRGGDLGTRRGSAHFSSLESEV

Take `NCCCC(=O)O` [GABA, reference compound]: the “Ca^2+ signal, mean rfu” value in assay [1] (100 µM GABA, baseline 7673, p < .0001) was 4196 rfu.
As to `C[N+](C)(C)CCCCCC[N+](C)(C)C` [Hexamethonium, reference compound], in [1] (50 µM hexamethonium + 100 µM acetylcholine, p > .9999 vs acetylcholine (6222)), the “Ca^2+ signal, mean rfu” value is 6228 rfu.
Turning to `[Cl-].[Cl-].[Mg+2]` [MgCl2], the half-maximal inhibitory concentration (IC50) in assay [2] was 40 µM.
In the case of `CN[C@H](CC(=O)O)C(=O)O` [NMDA, N‐methyl D‐aspartate, reference compound], the “Ca^2+ signal, mean rfu” value in assay [1] (300 µM NMDA alone) was found to be 26711 rfu; in [5], 20964 rfu. The “Na^+ signal compared to the background control” value in [3] and in assay [4] was “did not significantly increase” each time. The “Ca^2+ signal, rfu” value in assay [6] turned out to be 12810 rfu.
In the case of `CC(=O)OCC[N+](C)(C)C` [acetylcholine, reference compound], in assay [1] (100 µM acetylcholine, baseline 7673, p < .0001), the “Ca^2+ signal, mean rfu” value stood at 6222 rfu.
Take `N[C@@H](CCC(=O)O)C(=O)O` [glutamate, L‐glutamic acid, reference compound]: in [7] (100 µM glutamate, Figure 8B, baseline vs glutamate 514004 vs. 505677, p = .4055), the “Na^+ signal, mean rfu” value is reported as 505677 rfu. Besides, in assay [1] (100 µM glutamate, Figure 8A, baseline 7673), the “Ca^2+ signal, mean rfu” value is reported as 21956 rfu. Besides, in assay [8], the concentration for a half-maximal effect (EC50) came out at 340 ± 10 nM.
For the compound `CC(C(O)c1ccc(O)cc1)N1CCC(Cc2ccccc2)CC1` (stereo not shown) [ifenprodil, reference compound], the IC50 in assay [9] was 202 ± 25.1 µM.
Regarding `CC12CC3CC(C)(C1)CC(N)(C3)C2` [memantine, reference compound], the “Na^+ signal, mean rfu” value in [7] (NMDA plus 50 µM memantine, p < .01 vs NMDA alone (400251)) was found to be 412868 rfu. Moreover, in assay [1] (50 µM memantine added to NMDA, Figure 6), the “effect on NMDA‐induced Ca^2+ signal” value is “reversed the NMDA‐induced Ca^2+ signal back to the control level”.
As for picrotoxin [reference compound], the “effect on GABA mediated reduction of baseline Ca^2+ response” value in assay [1] (50 µM picrotoxin + 100 µM GABA) is reported as “unaltered”.

A word on the IC50: it is the midpoint of a concentration-inhibition curve. The term EC50 denotes the concentration giving half of the maximal effect.
